Results published in paper PMC4498954 (Inorganic chemistry, 2010).

Target: methemoglobin (metHb, human hemoglobin, Fe(III) form) (Homo sapiens, UniProt P68871+P69905)
Sequence (P69905 2-142): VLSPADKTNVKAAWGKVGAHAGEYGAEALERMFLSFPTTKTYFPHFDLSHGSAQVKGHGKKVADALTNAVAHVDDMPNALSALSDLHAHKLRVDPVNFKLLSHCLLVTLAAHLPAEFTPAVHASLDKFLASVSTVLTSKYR
Sequence (P68871 2-147): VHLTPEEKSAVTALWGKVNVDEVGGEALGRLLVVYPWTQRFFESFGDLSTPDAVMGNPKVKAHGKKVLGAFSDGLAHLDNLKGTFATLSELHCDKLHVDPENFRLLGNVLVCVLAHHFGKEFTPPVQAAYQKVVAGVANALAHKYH

`O=NO` [nitrite] was tested. Which Kd did it give?
The Kd was 1.24 ± 0.5 mM.
